From patent publication US20240124408A1 (Sanofi, priority 2020, published 2024) come the findings set out here.

Format in all cases: cell-based
In test [1] the target is T1, pig TRPM8 (Sus scrofa, UniProt F1SM15).
T1 construct: expressed in transfected cells; host or cells: CHO (pcDNA5/FRT/TO vector; hygromycin B and blasticidin selection)
Briefly: In vitro pig TRPM8 automated patch-clamp assay (SyncroPatch 384PE, CHO cells). Conditions: CHO cells expressing pig TRPM8, 28° C. The essentials: (§1)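 Whole-cell automated patch clamp on engineered CHO lines at 28 °C, held at −60 mV, with −80 to +80 mV ramps every 5 s; one compound concentration per well. Peak current minus pre-addition baseline was normalised to no-compound control and Emax, and EC50 was fitted; 200 μM menthol wells served as control.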

Test [2] has as its target T1, pig TRPM8. Put plainly: In vitro pig TRPM8 fluorescence calcium flux assay (recombinant CHO cells, Fluo4-AM, FDSS6000). Conditions: recombinant CHO cells expressing pig TRPM8; menthol-related EC50, normalized to 100 μM menthol. The essentials:
(§2)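 CHO cells stably expressing pig or human TRPM8, loaded with 2 μM Fluo4-AM in HBSS/20 mM HEPES/0.1% BSA/2.5 mM probenecid for 1 h at RT. Intracellular calcium read kinetically for 3 min after compound addition. EC50 from sixteen-point curves, normalized to 100 μM menthol maximal response.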
(In general: Calcium flux is commonly read through the fluorescence of an indicator in the cells.)

Test [3] deals with T2, human TRPM8 (Homo sapiens, UniProt Q7Z2W7).
T2 construct: expressed in transfected cells; host or cells: CHO (p658 mammalian expression vector)
Briefly: In vitro human TRPM8 automated patch-clamp assay (SyncroPatch 384PE, CHO cells). As to conditions: CHO cells expressing human TRPM8, 28° C. The essentials:
as §1
A general note: The patch-clamp technique gives a direct electrical read-out from membranes.

Test [4] concerns the target T2, human TRPM8. Put plainly: In vitro human TRPM8 fluorescence calcium flux assay (recombinant CHO cells, Fluo4-AM, FDSS6000). As to conditions: recombinant CHO cells expressing human TRPM8; menthol-related EC50, normalized to 100 μM menthol. The essentials: as §2

Structures are written as SMILES.

T2 sequence (Q7Z2W7 whole entry): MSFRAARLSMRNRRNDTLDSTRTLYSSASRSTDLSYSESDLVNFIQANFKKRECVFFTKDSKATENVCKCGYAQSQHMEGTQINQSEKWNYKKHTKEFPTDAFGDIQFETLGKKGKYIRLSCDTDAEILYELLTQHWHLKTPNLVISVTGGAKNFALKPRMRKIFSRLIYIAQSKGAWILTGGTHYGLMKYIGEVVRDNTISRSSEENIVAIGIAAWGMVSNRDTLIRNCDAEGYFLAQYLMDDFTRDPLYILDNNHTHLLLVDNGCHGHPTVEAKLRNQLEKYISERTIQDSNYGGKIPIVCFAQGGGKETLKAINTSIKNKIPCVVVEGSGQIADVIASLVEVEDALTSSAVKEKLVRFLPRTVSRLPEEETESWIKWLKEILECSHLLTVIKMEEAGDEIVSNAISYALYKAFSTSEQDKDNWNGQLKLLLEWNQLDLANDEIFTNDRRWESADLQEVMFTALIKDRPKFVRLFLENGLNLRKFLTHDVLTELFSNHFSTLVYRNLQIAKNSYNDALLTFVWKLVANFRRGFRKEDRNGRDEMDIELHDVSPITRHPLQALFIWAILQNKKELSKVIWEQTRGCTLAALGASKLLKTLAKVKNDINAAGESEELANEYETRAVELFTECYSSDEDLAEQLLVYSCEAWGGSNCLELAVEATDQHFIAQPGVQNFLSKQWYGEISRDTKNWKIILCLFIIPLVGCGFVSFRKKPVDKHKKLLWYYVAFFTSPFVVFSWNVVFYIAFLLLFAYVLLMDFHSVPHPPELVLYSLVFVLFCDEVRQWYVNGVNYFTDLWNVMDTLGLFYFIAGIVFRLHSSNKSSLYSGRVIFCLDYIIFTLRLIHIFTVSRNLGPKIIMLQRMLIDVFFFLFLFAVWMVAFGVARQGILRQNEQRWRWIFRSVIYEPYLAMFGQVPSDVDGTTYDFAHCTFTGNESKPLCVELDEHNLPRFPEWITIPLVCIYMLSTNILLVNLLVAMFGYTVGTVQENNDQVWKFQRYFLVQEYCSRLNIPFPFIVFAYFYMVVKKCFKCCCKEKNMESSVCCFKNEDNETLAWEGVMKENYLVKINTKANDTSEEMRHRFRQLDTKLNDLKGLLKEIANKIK
T1 sequence (F1SM15 1-1104): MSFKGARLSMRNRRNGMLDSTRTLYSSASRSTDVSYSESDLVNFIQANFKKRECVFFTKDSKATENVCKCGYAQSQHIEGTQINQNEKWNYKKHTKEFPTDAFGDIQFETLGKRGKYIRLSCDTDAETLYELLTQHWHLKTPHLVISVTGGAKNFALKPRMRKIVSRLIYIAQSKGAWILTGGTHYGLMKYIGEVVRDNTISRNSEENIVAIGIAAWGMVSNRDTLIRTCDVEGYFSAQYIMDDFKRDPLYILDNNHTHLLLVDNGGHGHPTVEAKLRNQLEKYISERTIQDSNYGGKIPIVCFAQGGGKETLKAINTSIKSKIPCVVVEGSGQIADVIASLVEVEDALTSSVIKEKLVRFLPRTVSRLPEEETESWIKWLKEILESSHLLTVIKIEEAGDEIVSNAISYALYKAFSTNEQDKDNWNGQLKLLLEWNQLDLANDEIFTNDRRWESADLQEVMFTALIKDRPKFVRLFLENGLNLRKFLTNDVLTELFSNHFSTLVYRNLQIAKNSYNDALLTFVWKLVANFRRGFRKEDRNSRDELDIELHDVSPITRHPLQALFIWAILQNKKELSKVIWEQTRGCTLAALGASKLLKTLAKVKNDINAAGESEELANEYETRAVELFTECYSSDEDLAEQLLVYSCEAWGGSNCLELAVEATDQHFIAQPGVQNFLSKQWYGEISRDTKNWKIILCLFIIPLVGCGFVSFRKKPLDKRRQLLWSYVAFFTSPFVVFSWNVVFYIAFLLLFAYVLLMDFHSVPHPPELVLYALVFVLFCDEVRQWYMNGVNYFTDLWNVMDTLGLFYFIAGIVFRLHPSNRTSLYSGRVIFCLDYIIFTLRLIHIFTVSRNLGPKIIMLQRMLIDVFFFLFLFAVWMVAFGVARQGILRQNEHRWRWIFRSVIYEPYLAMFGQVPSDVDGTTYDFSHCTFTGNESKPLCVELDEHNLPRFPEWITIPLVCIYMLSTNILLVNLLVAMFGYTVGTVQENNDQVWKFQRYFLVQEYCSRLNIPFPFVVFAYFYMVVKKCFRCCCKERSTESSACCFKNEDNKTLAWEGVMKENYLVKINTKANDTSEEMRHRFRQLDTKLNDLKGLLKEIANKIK

In general, EC50 refers to the concentration at which the effect is half-maximal. As to `CC(C)[C@@H]1CC[C@@H](C)C[C@@]1(O)C(=O)NCC(CO)c1ccccc1` (single isomer, unassigned) [Example 89], the EC50 was found to be 3250 nM at pig TRPM8 [1], 47.6 nM on pig TRPM8 [2], 3300 nM at human TRPM8 [3] and 90.3 nM at human TRPM8 [4].
Taken in the same sequence, the figures for `CC(C)[C@@H]1CC[C@@H](C)C[C@@]1(O)C(=O)NCCc1ccccc1OCCO` [Example 7, (1S,2S,5R)-1-hydroxy-N-(2-(2-hydroxyethoxy)phenethyl)-2-isopropyl-5-methylcyclohexane-1-carboxamide] were 6190 nM, 8.1 nM, 2800 nM and 8.5 nM.
The matching figures for `CC(C)[C@@H]1CC[C@@H](C)C[C@@]1(O)C(=O)NCCc1cccc(OCC(O)CO)c1` (stereo partly drawn) [Example 10, (1S,2S,5R)—N-(3-(2,3-dihydroxypropoxy)phenethyl)-1-hydroxy-2-isopropyl-5-methylcyclohexane-1-carboxamide]: 4800 nM, 9.7 nM, 4130 nM and 21.4 nM.
The matching figures for `COC(=O)[C@@H](N)Cc1cccc(CCNC(=O)[C@]2(O)C[C@H](C)CC[C@H]2C(C)C)c1` [Example 20, methyl (S)-2-amino-3-(3-(2-((1S,2S,5R)-1-hydroxy-2-isopropyl-5-methylcyclohexane-1-carboxamido)ethyl)phenyl)propanoate]: 1420 nM, 6.6 nM, 1400 nM and 3.2 nM.
For `COC(=O)c1cccc(C(O)CNC(=O)[C@]2(O)C[C@H](C)CC[C@H]2C(C)C)c1` (stereo partly drawn) [Example 34, methyl 3-(1-hydroxy-2-((1S,2S,5R)-1-hydroxy-2-isopropyl-5-methylcyclohexane-1-carboxamido)ethyl)benzoate], the EC50 amounted to 3210 nM at pig TRPM8 [1], 80 nM on pig TRPM8 [2], 4590 nM on human TRPM8 [3] and 97 nM at human TRPM8 [4].
Taken in the same sequence, the figures for `CC(C)[C@@H]1CC[C@@H](C)C[C@@]1(O)C(=O)NC[C@H](F)c1ccccc1` [Example 179, (1S,2S,5R)—N-((2R)-2-fluoro-2-phenylethyl)-1-hydroxy-2-isopropyl-5-methylcyclohexane-1-carboxamide] were 598 nM, 0.6 nM, 590 nM and 1.1 nM.
The matching figures for `CC(C)[C@@H]1CC[C@@H](C)C[C@@]1(O)C(=O)NC[C@@H](F)c1ccccc1` [Example 180, (1S,2S,5R)—N-((2S)-2-fluoro-2-phenylethyl)-1-hydroxy-2-isopropyl-5-methylcyclohexane-1-carboxamide]: 1010 nM, 1.2 nM, 1700 nM and 3 nM.
For the molecule `COC(=O)C(CNC(=O)[C@]1(O)C[C@H](C)CC[C@H]1C(C)C)c1ccccc1` (stereo partly shown) [Example 69], the EC50 on pig TRPM8 [1] is 1580 nM; at pig TRPM8 [2], 42 nM; at human TRPM8 [3], 1930 nM; at human TRPM8 [4], 46 nM.
`CC(C)[C@@H]1CC[C@@H](C)C[C@@]1(O)C(=O)NCCc1ccccc1OC[C@H](O)CO` [Example 24, (1S,2S,5R)—N-(2-((R)-2,3-dihydroxypropoxy)phenethyl)-1-hydroxy-2-isopropyl-5-methylcyclohexane-1-carboxamide]: the EC50 at pig TRPM8 [1] was found to be 1700 nM; on pig TRPM8 [2] it was 13.4 nM; at human TRPM8 [3], 2580 nM; on human TRPM8 [4], 7.8 nM.
As for `CC(CNC(=O)[C@]1(O)C[C@H](C)CC[C@H]1C(C)C)c1ccccc1` (stereo partly drawn) [Example 156, (1S,2S,5R)-1-hydroxy-2-isopropyl-5-methyl-N-(2-phenylpropyl)cyclohexanecarboxamide], the EC50 was determined as 1900 nM at pig TRPM8 [1], 21.5 nM on pig TRPM8 [2], 1800 nM at human TRPM8 [3] and 42.4 nM at human TRPM8 [4].
